Experimental data as given in patent publication US5446147A (Trustees of the University of Pennsylvania, priority 1992, dated 1995).
“Also recorded” adds a separate entry of the source.

Experiments:
[1] = In vivo biodistribution in rats (organ uptake); parameters: species or system rat; details: iv; for liver uptake (in words): first 30 min
Experimental: Male Sprague-Dawley rats (225-300 g), which were allowed free access to food and water, were used for the vivo biodistribution study. […] The organs of interest were removed and weighed and the radioactivity was counted with a Beckman gamma automatic counter (Model 4000). The percent dose per organ was calculated by a comparison of the tissue counts to suitably diluted aliquots of the injected material. Total activities of blood and muscle were calculated under the assumption that they were 7% and 40% of the total body weight, respectively.

[2] = tested on: dopamine receptors (striatum); experiment: Regional brain distribution in rats (uptake ratio of region to cerebellum); type: in vivo, rat; details: iv
Experimental: Male Sprague-Dawley rats (225-300 g), which were allowed free access to food and water, were used for the vivo biodistribution study. While under halothane anesthesia, 0.2 mL of a saline solution containing [^125 I]FIDA 8 or 10 (8-10 μCi) was injected […] into the femoral vein of rats, and they were sacrificed at various time points postinjection by cardiac excision under halothane anesthesia. The organs of interest were removed and weighed and the radioactivity was counted with a Beckman gamma automatic counter (Model 4000). The percent dose per organ was calculated by a comparison of the tissue counts to suitably diluted aliquots of the injected material. Total activities of blood and muscle were calculated under the assumption that they were 7% and 40% of the total body weight, respectively.
Regional brain distribution in rats was obtained after an injection of [^125 I]FIDA 8 or 10. By dissecting, weighing, and counting samples from different brain regions (cortex, striatum, hippocampus, and cerebellum), the percent dose/gram of sample was calculated by comparing the sample counts with the count of the diluted initial dose. The uptake ratio of each region was obtained by dividing the percent dose/gram of each region by that to the cerebellum.

[3] = molecular target: T1, dopamine D2 receptor (Rat Striatal Membranes) (Rattus norvegicus, UniProt P61169); experiment: Competition for ^125 I-FIDA-2 binding to rat striatal membranes
T1 construct: Rat tissue homogenates were prepared as described previously; from tissue; host or cells: rat striatal membranes (tissue homogenate)
Experimental: (§1) Rat tissue homogenates were prepared as described previously. Murphy, R. A., et al., J. Med. Chem. 33, 171-178 (1990). The binding assays were performed by incubating 50 μL of tissue preparations containing 40-60 μg of protein with appropriate amounts of ^125 I-labeled ligand and competitors in a total volume of 0.2 mL of the assay buffer. After an incubation period of 15 min at 37° C. (with stirring), the samples were rapidly filtered in a cell harvester (Brandel M-24R) under vacuum through Whatman GF/B glass-fiber filters pretreated with […] protamine base and washed with 3×5 mL of cold (4° C.) 50 mM Tris-HCI buffer, pH 7.4. The nonspecific binding was obtained in the presence of 10 μM (+)butaclamol. The filters were counted in a γ counter (Beckman 5500) at an efficiency of 70%. Both Scatchard and competition experiments were analyzed with the iterative nonlinear least squares curve-fitting program LIGAND.

[4] = molecular target: Dopamine D-2 Receptors; details: Table II, known dopamine D-2 receptor ligands; cited from earlier work
[5] = molecular target: T1, dopamine D2 receptor (Rat Striatal Membranes); experiment: Competition for ^125 I-FIDA-1 binding to rat striatal membranes
Experimental: as §1

[6] = rat striatal membranes, 15 min at 37° C., nonspecific binding with 10 μM (+)butaclamol, read-out: Ki, inhibition constant on ^125 I-FIDA-2 binding

T1 sequence (P61169 whole entry): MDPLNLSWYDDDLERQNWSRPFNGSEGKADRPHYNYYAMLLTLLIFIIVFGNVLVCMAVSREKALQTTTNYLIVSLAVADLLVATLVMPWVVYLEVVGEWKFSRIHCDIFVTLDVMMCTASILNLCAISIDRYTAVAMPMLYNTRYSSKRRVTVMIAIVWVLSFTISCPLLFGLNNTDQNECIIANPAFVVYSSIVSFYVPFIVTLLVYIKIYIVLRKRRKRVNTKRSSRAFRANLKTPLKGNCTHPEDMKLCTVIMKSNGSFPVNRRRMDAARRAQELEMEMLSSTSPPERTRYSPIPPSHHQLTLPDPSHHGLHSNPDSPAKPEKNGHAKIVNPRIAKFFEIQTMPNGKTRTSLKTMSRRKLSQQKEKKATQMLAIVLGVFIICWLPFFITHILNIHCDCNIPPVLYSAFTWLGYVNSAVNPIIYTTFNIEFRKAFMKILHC

CCN1CCC[C@H]1CNC(=O)c1cc([123I])cc(OC)c1OCCF [[^123 I]FIDA1]
brain uptake (in words) [1]: moderate brain uptake
liver clearance (in words) [1]: rapidly washed out at 1 h postinjection
brain washout (in words) ([1]; 1 h after injection): a large portion of the radioactivity has washed out from the brain; also recorded: the radioactivity had washed out from the brain
liver uptake (in words) [1]: remained high for the first 30 min
increase in target to nontarget ratio vs. time, hippocampus and cortex [2]: not observed
retention in striatum (in words) [2]: prolonged retention
striatum/cerebellum (ST/CB) ratio ([2]; 30 min): 8.26
striatum/cerebellum (ST/CB) ratio ([2]; 60 min): 29.3
striatum/cerebellum (ST/CB) ratio ([2]; printed 10 min): 60.7

COC(=O)[C@@H]1[C@H]2C[C@H]3c4[nH]c5ccccc5c4CCN3C[C@@H]2CC[C@@H]1O [yohimbine]
Ki [3, 6]: 505 ± 70 nM

CCN1CCC[C@H]1CNC(=O)c1cc(I)cc2c1OCC2 [IBF]
Kd [4]: 0.106 nM

CCN1CCC[C@H]1CNC(=O)c1c(O)c(I)cc(OC)c1OC [Ioxipride]
Kd [4]: 0.019 nM

CCN1CCC[C@H]1CNC(=O)c1c(O)c(Cl)cc(Cl)c1OC [Raclopride]
Kd [4]: 10 nM

CN1[C@@H]2CC[C@H]1C[C@@H](OC(=O)C(CO)c1ccccc1)C2 (stereo partly drawn) [atropine]
Ki [5]: > 10000 nM
Ki [3]: > 10000 nM

COc1cc(I)cc(C(=O)NC[C@H]2CCCN2Cc2ccc(F)cc2)c1OC [FIDA2, R(+)-2,3-dimethoxy-N-[(1-(4' -fluorobenzyl)-2-pyrrolidinyl)methyl]-5-iodobenzamide]
binding specificity and selectivity (FIDA2 radioligand) ([3]; competition study with various types of receptor ligands): specifically binds to the dopamine D2 receptor with great selectivity

CCN1CCC[C@H]1CNC(=O)c1c(OC)ccc(I)c1O [IBZM]
Kd [4]: 0.426 nM

CCN1CCC[C@H]1CNC(=O)c1cc(I)cc(OC)c1OC [Epidepride]
Kd [4]: 0.024 nM

CCN1CCC[C@H]1CNC(=O)c1cc(CCCF)cc(OC)c1OC [Fluoropropyl-Epidepride]
Kd [4]: 0.03 nM

COc1cc([123I])cc(C(=O)NC[C@H]2CCCN2Cc2ccc(F)cc2)c1OC [[^123 I]FIDA2]
brain uptake (in words) [1]: better brain uptake in rats than [^123 I]FIDA1; also recorded: higher brain uptake than [^123 I]FIDA1
liver clearance (in words) [1]: slower than it was for [^123 I]FIDA1
liver uptake (in words) [1]: High initial uptake in the liver
brain uptake ([1]; time not stated): 0.98 % dose/organ
ST/CB ratio ([2]; 2 min): 1.2
ST/CB ratio ([2]; 120 min): 25.2

COc1cccc(OC)c1OCCNCC1COc2ccccc2O1 (stereo not drawn) [WB 4101]
Ki ([5]; rat striatal membranes, 15 min at 37° C., nonspecific binding with 10 μM (+)butaclamol, read-out: Ki, inhibition constant on ^125 I-FIDA-1 binding): 33.1 ± 1.5 nM
Ki [3, 6]: 23.3 ± 2.2 nM
